{"source": "patent US20260041653A1", "about": "“AN HDAC INHIBITOR FOR TREATING CANCER WITH A MODIFIED STK11 ACTIVITY OR EXPRESSION” (Tango Therapeutics, Inc., priority 2022, published 2026)", "key": {"H3K9Ac": {"tested_on": "H3K9Ac", "experiment": "H3K9Ac in MC38 tumor tissue by Western blot", "assay_type": "in vivo, mouse", "details": "3, 10, 30 mg/kg for 7 days; tissue 8 hours post last dose; normalized to total histone H3", "description": "Formation and accumulation of acetylated histone 3 lysine 9 (H3K9Ac) in MC38 tumor tissue from mouse after treatment with Compound I was determined by Western blot. Briefly, female C57BL/6 mice with MC38 tumors were treated with Compound I for 7 days at the indicated dose (3 mg/kg, 10 mg/kg, and 30 mg/kg). Tissue was collected 8 hours post last dose and the H3K9Ac accumulation was quantified by Western blot in (FIG. 14A) and normalized to total histone H3 (FIG. 14B)."}, "[1]": {"experiment": "Stability in human liver microsomes", "assay_type": "in vitro ADME", "details": "240 minutes; HLM protein concentration 0.6 mg/ml", "description": "Drug metabolizing enzymes involved in the biotransformation of Compound I were investigated using human liver microsomes (HLM) and recombinant enzymes. Compound I was stable in HLMs (>93% remaining after 240 minutes of incubation with HLM protein concentration at 0.6 mg/ml). CYP selective inhibitor experiments were not performed due to lack of appreciable Compound I turnover."}, "Pharmacokinetics in rats": {"experiment": "Pharmacokinetics in rats", "assay_type": "in vivo, Sprague Dawley rats", "details": "rat, plasma", "description": "The pharmacokinetics (PK) of Compound I in rats was determined following single IV bolus of 1 mg/kg in 20% wt/vol HPβCD, 1% vol/vol DMSO in saline or single PO dose of 3 mg/kg in 0.5% methylcellulose (MC) in water to male Sprague Dawley rats (fed for IV, fasted for PO). Plasma samples were collected from 3 animals/group at 0.05, 0.25, 0.5, 1, 2, 3, 4 8, and 24 hours after dosing."}, "CoREST complex": {"tested_on": "CoREST complex", "experiment": "Fluorescence-based deacetylase assay of cell-derived HDAC complex, CoREST", "assay_type": "biochemical", "source_text": "The HDAC inhibition was profiled in a fluorescence-based deacetylase assay."}, "MC38_sgStk11 tumor": {"tested_on": "MC38_sgStk11 tumor", "experiment": "Re-challenge of survived animals of Example 1 with MC38_sgStk11 cells", "assay_type": "in vivo, Mus musculus", "details": "off-treatment", "description": "Summary: A re-challenge study of Example 1 was performed to evaluate whether the survived animals from Example 1 had acquired T memory against the same tumor.\nExperimental Design & Materials: The survived animals of the efficacy part were re-challenged with MC38_sgStk11 cells respectively in the opposite side of primary tumors.\nThe MC38_sgStk11 tumor cells were maintained in vitro as a monolayer culture in DMEM+2 mM glutamine supplemented with about 10% heat inactivated fetal bovine serum, 100 U/ml penicillin and 100 μg/ml streptomycin at about 37° C. in an atmosphere of about 5% CO2 in air. The tumor cells were routinely sub-cultured twice weekly by trypsin-EDTA treatment. The cells growing in an exponential growth phase were harvested and counted for tumor inoculation.\nMice were inoculated subcutaneously at the left lower flank with MC38_sgStk11 tumor cells (0.5×106) in 0.1 ml of PBS for tumor development. The animal numbers and the cell numbers for each group are shown in the experimental design (Table 2-1). The survived animals from the Example 1 were under post-treatment monitoring for 21 days before re-challenge.\nAll the procedures related to animal handling, care and the treatment in the study were performed according to the guidelines approved by the Institutional Animal Care and Use Committee (IACUC) of vendor following the guidance of the Association for Assessment and Accreditation of Laboratory Animal Care (AAALAC). At the time of routine monitoring, the animals were daily checked for any effects of tumor growth and treatments on normal behavior such as mobility, food and water consumption, body weight gain/loss (body weights were measured twice per week), eye/hair matting and any other abnormal effect as stated in the protocol. Death and observed clinical signs were recorded on the basis of the numbers of animals within each subset.\nTumor size was measured three times per week in […] using a caliper, and the volume was expressed in mm3 using the formula: V=0.5 a×b2 where a and b are the long and short diameters of the tumor, respectively."}}, "note": "Values joined by “and” are separate entries in the source; they are usually repeats but may differ in a detail not shown here. Identical values can stand only once. “Also recorded” adds a separate entry of the source.", "data": [{"smiles": "C[S@@](=N)(=O)c1ccc(C(=O)Nc2cc(-c3ccc(F)cc3)ccc2N)cc1", "note": "[Compound I, (R)—N-(4-amino-4′-fluoro-[1,1′-biphenyl]-3-yl)-4-(S-methylsulfonimidoyl)benzamide]", "values": [{"measurement": "H3K9Ac accumulation in MC38 tumor tissue", "setting": "H3K9Ac", "value": "dose dependent accumulation of H3K9Ac"}, {"measurement": "remaining after incubation with HLM", "setting": "[1]", "value": "> 93", "unit": "%"}, {"measurement": "half-life", "setting": "Pharmacokinetics in rats; male, Sprague Dawley", "value": 4.8, "unit": "h"}, {"measurement": "clearance", "setting": "Pharmacokinetics in rats; male, Sprague Dawley, intravenous, 1 mg/kg, read-out: CL, p", "value": 7.7, "unit": "mL/min/kg"}, {"measurement": "bioavailability", "setting": "Pharmacokinetics in rats; male Sprague Dawley rats, PO 3 mg/kg in 0.5% MC, fasted, IV 1 mg/kg, read-out: PO bioavailability (% F)", "value": "95.4% and 95%"}, {"measurement": "selectivity for CoREST deacetylase compared to NCOR, NuRD, and Sin3", "setting": "CoREST complex", "value": "significant selectivity; also recorded: selective for the CoREST complex"}, {"measurement": "Tumor Volume after re-challenge", "setting": "MC38_sgStk11 tumor; Re-challenge Gr 2: survivor of Ex. 1 Gr. 5 (Anti-IgG2a + Compound I 75 mg/kg), day 0 after cell inoculation", "value": 0, "unit": "mm^3"}, {"measurement": "Tumor Volume after re-challenge", "setting": "MC38_sgStk11 tumor; Re-challenge Gr 2: survivor of Ex. 1 Gr. 5 (Anti-IgG2a + Compound I 75 mg/kg), day 3 after cell inoculation", "value": 17, "unit": "mm^3"}, {"measurement": "Tumor Volume after re-challenge", "setting": "MC38_sgStk11 tumor; Re-challenge Gr 2: survivor of Ex. 1 Gr. 5 (Anti-IgG2a + Compound I 75 mg/kg), day 5 after cell inoculation", "value": 25, "unit": "mm^3"}, {"measurement": "Tumor Volume after re-challenge", "setting": "MC38_sgStk11 tumor; Re-challenge Gr 2: survivor of Ex. 1 Gr. 5 (Anti-IgG2a + Compound I 75 mg/kg), day 8 after cell inoculation", "value": 6, "unit": "mm^3"}, {"measurement": "Tumor Volume after re-challenge", "setting": "MC38_sgStk11 tumor; Re-challenge Gr 2: survivor of Ex. 1 Gr. 5 (Anti-IgG2a + Compound I 75 mg/kg), day 10 after cell inoculation", "value": 0, "unit": "mm^3"}, {"measurement": "Tumor Volume after re-challenge", "setting": "MC38_sgStk11 tumor; Re-challenge Gr 2: survivor of Ex. 1 Gr. 5 (Anti-IgG2a + Compound I 75 mg/kg), day 12 after cell inoculation", "value": 0, "unit": "mm^3"}, {"measurement": "Tumor Volume after re-challenge", "setting": "MC38_sgStk11 tumor; Re-challenge Gr 2: survivor of Ex. 1 Gr. 5 (Anti-IgG2a + Compound I 75 mg/kg), day 15 after cell inoculation", "value": 0, "unit": "mm^3"}, {"measurement": "Tumor Volume after re-challenge", "setting": "MC38_sgStk11 tumor; Re-challenge Gr 2: survivor of Ex. 1 Gr. 5 (Anti-IgG2a + Compound I 75 mg/kg), day 17 after cell inoculation", "value": 0, "unit": "mm^3"}, {"measurement": "Tumor Volume after re-challenge", "setting": "MC38_sgStk11 tumor; Re-challenge Gr 2: survivor of Ex. 1 Gr. 5 (Anti-IgG2a + Compound I 75 mg/kg), day 19 after cell inoculation", "value": 0, "unit": "mm^3"}, {"measurement": "Tumor Volume after re-challenge", "setting": "MC38_sgStk11 tumor; Re-challenge Gr 7: survivors of Ex. 1 Gr. 12 (head prints Anti-IgG2a + Compound I 150 mg/kg D0-D4, 100 mg/kg D5-D48), day 0 after cell inoculation", "value": "0 ± 0", "unit": "mm^3"}, {"measurement": "Tumor Volume after re-challenge", "setting": "MC38_sgStk11 tumor; Re-challenge Gr 7: survivors of Ex. 1 Gr. 12 (head prints Anti-IgG2a + Compound I 150 mg/kg D0-D4, 100 mg/kg D5-D48), day 3 after cell inoculation", "value": "27 ± 2", "unit": "mm^3"}, {"measurement": "Tumor Volume after re-challenge", "setting": "MC38_sgStk11 tumor; Re-challenge Gr 7: survivors of Ex. 1 Gr. 12 (head prints Anti-IgG2a + Compound I 150 mg/kg D0-D4, 100 mg/kg D5-D48), day 5 after cell inoculation", "value": "27 ± 1", "unit": "mm^3"}, {"measurement": "Tumor Volume after re-challenge", "setting": "MC38_sgStk11 tumor; Re-challenge Gr 7: survivors of Ex. 1 Gr. 12 (head prints Anti-IgG2a + Compound I 150 mg/kg D0-D4, 100 mg/kg D5-D48), day 8 after cell inoculation", "value": "6 ± 0", "unit": "mm^3"}, {"measurement": "Tumor Volume after re-challenge", "setting": "MC38_sgStk11 tumor; Re-challenge Gr 7: survivors of Ex. 1 Gr. 12 (head prints Anti-IgG2a + Compound I 150 mg/kg D0-D4, 100 mg/kg D5-D48), day 10 after cell inoculation", "value": "0 ± 0", "unit": "mm^3"}, {"measurement": "Tumor Volume after re-challenge", "setting": "MC38_sgStk11 tumor; Re-challenge Gr 7: survivors of Ex. 1 Gr. 12 (head prints Anti-IgG2a + Compound I 150 mg/kg D0-D4, 100 mg/kg D5-D48), day 12 after cell inoculation", "value": "0 ± 0", "unit": "mm^3"}, {"measurement": "Tumor Volume after re-challenge", "setting": "MC38_sgStk11 tumor; Re-challenge Gr 7: survivors of Ex. 1 Gr. 12 (head prints Anti-IgG2a + Compound I 150 mg/kg D0-D4, 100 mg/kg D5-D48), day 15 after cell inoculation", "value": "0 ± 0", "unit": "mm^3"}, {"measurement": "Tumor Volume after re-challenge", "setting": "MC38_sgStk11 tumor; Re-challenge Gr 7: survivors of Ex. 1 Gr. 12 (head prints Anti-IgG2a + Compound I 150 mg/kg D0-D4, 100 mg/kg D5-D48), day 17 after cell inoculation", "value": "0 ± 0", "unit": "mm^3"}, {"measurement": "Tumor Volume after re-challenge", "setting": "MC38_sgStk11 tumor; Re-challenge Gr 7: survivors of Ex. 1 Gr. 12 (head prints Anti-IgG2a + Compound I 150 mg/kg D0-D4, 100 mg/kg D5-D48), day 19 after cell inoculation", "value": "0 ± 0", "unit": "mm^3"}]}]}
